# System: MK-801-induced PPI disruption
# Test: Prepulse inhibition of startle with disruption by MK-801
# Type: in vivo, Wistar rats
# Conditions: pretreatment vehicle, treatment MK-801 0.2 mg/kg i.p., mean ± SEM
# Source text: Prepulse inhibition (PPI) is a cross-species phenomenon (i.e., it is present in mammals ranging from mice to humans), yet it is relatively impaired among schizophrenic patients. The PPI procedure is used to assess the subject's ability to “gate” or filter environmental information. In the acoustic (startle model) of sensorimotor gating a weak acoustic stimulus (prepulse) decrease the reflexive flinching response (startle) produced by a second, more intense, stimulus (the pulse). Drugs like dizocilpine (MK-801) or amphetamine disrupt PPI and represent an animal model of schizophrenia; antipsychotic drugs are able to prevent PPI deficit. The test is quite useful to screen potential antipsychotic drugs.
# Methods: Male Wistar rats, weighing 200-300 g were used. Apparatus: All startle and PPI testing has been performed in four startle chambers. Each ventilated illuminated and sound proof chamber contained a clear non-restrictive Plexiglas cylinder resting on a platform. A high-frequency loudspeaker inside the chamber produced both a continuous background noise of 70 dB and the various acoustic stimuli. Vibrations of the Plexiglas cylinder caused by the whole-body startle response of the animal were transduced into analogue signals by a piezoelectric unit attached to the platform. These signals were then digitized and stored by a computer. Sixty-five readings were taken at 1-ms intervals starting at stimulus onset, and the average amplitude was used to determine the acoustic startle response. Sound levels is given in dB.
# Prepulse inhibition session: After 5 min of habituation (background white noise, 70 dB), two types of acoustic stimuli were used: acoustic stimulus alone (120 dB, 40 ms) or the stimulus proceeded by a prepulse (76, 79, 82 dB, 40 ms) applied 100 ms before the stimulus. During each experimental session 20 trials of each type were presented with interstimulus interval of 20 s. The amplitudes were averaged for each individual animal, separately for both types of trials (stimulus alone or stimulus preceded by the prepulse). The degree of prepulse inhibition was shown as a percentage score (% PPI) calculated as […] a difference between the amplitude of the pulse-alone (P) and the amplitude of the prepulse+pulse trials (PP+P), divided by the amplitude of the pulse-alone trials and multiplied by 100. […] Substances and treatments: MK-801 0.2 mg/kg was dissolved in saline and was given i.p. In each experiment, […] were assigned to receive either compounds of the disclosure or vehicle and were tested in the PPI session using a between-subjects design. The order of drug treatment for the first experiment was test-compound, followed by MK-801; for the second experiment rats received test-compound and then amphetamine. Statistical Analysis: Multiple ANOVA was conducted followed by Dunnett's post hoc test.
structure (smiles),measurement,setting,value
"C[C@]12N[C@H](Cc3ccccc31)c1ccccc12 [MK-801, reference compound]",Percentage of inhibition,% PPI,9.07 ± 0.81 %
same,Acoustic tone alone,startle amplitude,40.50 ± 1.96
same,Startle amplitude on prepulse + pulse trials,startle amplitude,37.00 ± 2.11
